The results in this text go back to publication PMC9920254 (Molecules, 2023).

Broadly, the inhibition is the relative decrease from the control value, in per cent.

Each structure is given as a SMILES string.

The target of one data set is T1, UGT1A1 (Rattus norvegicus, UniProt Q64550).
T1 construct: rat liver microsomes (RLMs) were prepared with 6 Sprague-Dawley males (6–8 weeks); from tissue; host or cells: liver microsomes of male Sprague-Dawley rats, prepared in house
T1 sequence (Q64550 30-535): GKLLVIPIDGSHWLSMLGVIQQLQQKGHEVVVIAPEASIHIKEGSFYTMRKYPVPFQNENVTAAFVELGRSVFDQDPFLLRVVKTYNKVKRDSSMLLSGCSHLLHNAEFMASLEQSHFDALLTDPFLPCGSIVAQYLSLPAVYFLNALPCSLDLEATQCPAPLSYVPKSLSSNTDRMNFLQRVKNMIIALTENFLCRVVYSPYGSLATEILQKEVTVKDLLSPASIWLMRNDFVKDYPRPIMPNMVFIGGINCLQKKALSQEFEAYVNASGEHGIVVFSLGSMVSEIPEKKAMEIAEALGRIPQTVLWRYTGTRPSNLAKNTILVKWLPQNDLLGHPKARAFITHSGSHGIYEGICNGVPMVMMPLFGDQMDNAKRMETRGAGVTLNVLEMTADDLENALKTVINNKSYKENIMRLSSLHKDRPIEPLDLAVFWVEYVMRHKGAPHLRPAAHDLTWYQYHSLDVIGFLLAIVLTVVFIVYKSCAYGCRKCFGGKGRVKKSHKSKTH
The data set is described as follows: Chemical inhibition assay of PND metabolism in RLM, UGT1A1 inhibitor. The class given is in vitro ADME. The conditions noted are these: liver microsomes, pH 7.4, probe PND (2 µM), overall metabolism of PND, bilirubin 100 μM. In general terms: Liver microsomes are a subcellular fraction often used to study metabolism.

A further data set has as its system CYP2E1. Kind of data set: Chemical inhibition assay of PND metabolism in LMs, CYP2E1 inhibitor. The class given is in vitro ADME, rat, mouse and human. The conditions noted are these: disulfiram 50 μM (CYP2E1 inhibitor), PND 2 µM, LMs 0.5 mg protein/mL.
The next data set relates to CYP3A4. Kind of data set: in vitro. The conditions noted are these: male, Sprague-Dawley (rat), Kunming (mouse), human, liver microsomes, probe PND (2 µM).
The next data set deals with T2, UGT1A9 (Homo sapiens, UniProt O60656).
T2 construct: Male Mongolia human microsomes (HLM), prepared from 30 male donors (19–78 years old); tissue RILD Liver Disease Research Co., Ltd. (Shanghai, China); host or cells: pooled human liver microsomes, 30 male donors
T2 sequence (O60656 26-530): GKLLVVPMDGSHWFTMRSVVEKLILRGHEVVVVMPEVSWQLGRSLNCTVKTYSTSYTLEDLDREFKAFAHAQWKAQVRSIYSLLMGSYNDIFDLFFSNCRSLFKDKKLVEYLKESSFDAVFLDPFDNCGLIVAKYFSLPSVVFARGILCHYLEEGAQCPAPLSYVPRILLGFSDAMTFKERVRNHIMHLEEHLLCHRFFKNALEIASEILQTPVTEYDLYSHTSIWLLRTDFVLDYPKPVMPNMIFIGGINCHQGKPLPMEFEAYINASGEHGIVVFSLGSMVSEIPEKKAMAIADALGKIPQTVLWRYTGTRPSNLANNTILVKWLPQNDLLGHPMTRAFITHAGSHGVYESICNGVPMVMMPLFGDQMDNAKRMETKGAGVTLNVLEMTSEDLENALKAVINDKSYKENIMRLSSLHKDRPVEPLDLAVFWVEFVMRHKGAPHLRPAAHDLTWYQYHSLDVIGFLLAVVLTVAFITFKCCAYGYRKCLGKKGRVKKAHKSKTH
Kind of data set: Chemical inhibition assay of PND metabolism in HLM, UGT1A9 inhibitor. It is filed as in vitro ADME. The conditions noted are these: liver microsomes, probe PND (2 µM), overall metabolism of PND, niflumic acid 5 μM.

Another data set concerns CYP2C9 (CYP2C6). Kind of data set: in vitro. The conditions noted are these: male, Sprague-Dawley (rat), Kunming (mouse), human, liver microsomes, probe PND (2 µM).
Data set [1] concerns the target T3, UGT1A6 (Rattus norvegicus, UniProt P08430).
T3 construct: rat liver microsomes (RLMs) were prepared with 6 Sprague-Dawley males (6–8 weeks); from tissue; host or cells: liver microsomes of male Sprague-Dawley rats, prepared in house
T3 sequence (P08430 26-529): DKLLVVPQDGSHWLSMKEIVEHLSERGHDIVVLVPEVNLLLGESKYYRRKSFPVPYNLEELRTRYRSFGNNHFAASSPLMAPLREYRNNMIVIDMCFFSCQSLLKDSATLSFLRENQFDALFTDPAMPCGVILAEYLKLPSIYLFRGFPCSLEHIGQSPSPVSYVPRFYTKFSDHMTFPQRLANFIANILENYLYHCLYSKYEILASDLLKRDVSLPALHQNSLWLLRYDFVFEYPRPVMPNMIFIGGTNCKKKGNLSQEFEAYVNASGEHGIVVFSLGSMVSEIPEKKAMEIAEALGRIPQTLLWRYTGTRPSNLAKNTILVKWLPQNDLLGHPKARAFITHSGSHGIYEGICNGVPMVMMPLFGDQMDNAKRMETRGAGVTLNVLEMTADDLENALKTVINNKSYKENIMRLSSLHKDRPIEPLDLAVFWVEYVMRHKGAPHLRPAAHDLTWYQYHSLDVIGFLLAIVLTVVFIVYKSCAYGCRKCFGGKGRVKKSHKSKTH
Kind of data set: Chemical inhibition assay of PND metabolism in RLM, UGT1A6 inhibitor. The class given is in vitro ADME. Particulars: liver microsomes, pH 7.4, probe PND (2 µM), overall metabolism of PND, troglitazone 250 μM.

Data set [2] concerns the target T4, UGT1A6 (Mus musculus, UniProt Q64435).
T4 construct: Mouse liver microsomes (MLM) were prepared with 10 Kunming males (6–8 weeks); from tissue; host or cells: liver microsomes of male Kunming mice, prepared in house
T4 sequence (Q64435 27-531): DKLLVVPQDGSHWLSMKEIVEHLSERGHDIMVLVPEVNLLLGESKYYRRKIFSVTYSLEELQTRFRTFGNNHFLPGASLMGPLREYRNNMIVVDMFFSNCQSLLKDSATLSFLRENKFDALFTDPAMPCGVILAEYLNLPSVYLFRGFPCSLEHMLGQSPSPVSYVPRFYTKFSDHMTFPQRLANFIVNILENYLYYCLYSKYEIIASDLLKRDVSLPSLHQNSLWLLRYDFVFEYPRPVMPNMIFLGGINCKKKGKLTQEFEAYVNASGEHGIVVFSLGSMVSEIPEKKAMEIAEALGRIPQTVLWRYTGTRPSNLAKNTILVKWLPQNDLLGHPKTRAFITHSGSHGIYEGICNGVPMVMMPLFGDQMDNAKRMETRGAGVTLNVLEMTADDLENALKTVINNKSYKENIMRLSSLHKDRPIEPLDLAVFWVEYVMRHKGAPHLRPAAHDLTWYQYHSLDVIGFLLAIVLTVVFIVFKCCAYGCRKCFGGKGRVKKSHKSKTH
The data set is described as follows: Chemical inhibition assay of PND metabolism in MLM, UGT1A6 inhibitor. It is filed as in vitro ADME. The conditions noted are these: liver microsomes, pH 7.4, probe PND (2 µM), overall metabolism of PND, troglitazone 250 μM.

Data set [3] addresses T5, UGT1A6 (Homo sapiens, UniProt P19224).
T5 construct: Male Mongolia human microsomes (HLM), prepared from 30 male donors (19–78 years old); tissue RILD Liver Disease Research Co., Ltd. (Shanghai, China); host or cells: pooled human liver microsomes, 30 male donors
T5 sequence (P19224 27-532): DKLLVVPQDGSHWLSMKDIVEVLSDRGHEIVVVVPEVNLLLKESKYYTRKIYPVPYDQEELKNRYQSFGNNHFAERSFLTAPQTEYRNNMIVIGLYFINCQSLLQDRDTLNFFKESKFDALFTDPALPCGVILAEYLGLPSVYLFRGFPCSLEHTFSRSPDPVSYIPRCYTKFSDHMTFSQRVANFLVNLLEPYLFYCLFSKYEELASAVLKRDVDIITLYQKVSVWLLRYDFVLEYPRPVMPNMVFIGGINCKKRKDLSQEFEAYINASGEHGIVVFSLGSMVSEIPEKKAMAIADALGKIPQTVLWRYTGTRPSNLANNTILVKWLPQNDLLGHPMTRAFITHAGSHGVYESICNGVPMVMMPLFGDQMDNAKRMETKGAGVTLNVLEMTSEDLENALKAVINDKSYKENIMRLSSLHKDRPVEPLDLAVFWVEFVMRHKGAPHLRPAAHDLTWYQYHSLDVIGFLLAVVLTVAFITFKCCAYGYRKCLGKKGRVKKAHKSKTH
The data set is described as follows: Chemical inhibition assay of PND metabolism in human LMs, UGT1A6 inhibitor. The conditions noted are these: liver microsomes, probe PND (2 µM), overall metabolism of PND, troglitazone 250 μM. The class given is in vitro ADME.

Take `C=CC1=C(C)/C(=C/c2[nH]c(Cc3[nH]c(/C=C4\NC(=O)C(C)=C4C=C)c(C)c3CCC(=O)O)c(CCC(=O)O)c2C)NC1=O` [bilirubin]: on UGT1A1, the inhibition at 90 min, 100 μM was determined as 64.3%.

`CCN(CC)C(=S)SSC(=S)N(CC)CC` [disulfiram]: the “Effect on metabolism of PND in LMs” value in the data set with CYP2E1 is “decreased significantly”.

As to `CC(=O)N1CCN(c2ccc(OCC3COC(Cn4ccnc4)(c4ccc(Cl)cc4Cl)O3)cc2)CC1` (centres unmarked) [ketoconazole], the inhibition at 2 µM in the data set with CYP3A4 was 19 to 48%.

For the compound `O=C(O)c1cccnc1Nc1cccc(C(F)(F)F)c1` [niflumic acid], the inhibition at 90 min, 5 μM on UGT1A9 turned out to be 36.7%.

In the data set with CYP2C9 (CYP2C6), `Nc1ccc(S(=O)(=O)Nc2ccnn2-c2ccccc2)cc1` [sulphafenazole] yielded an inhibition at 100 µM of 19 to 48%.

As for `Cc1c(C)c2c(c(C)c1O)CCC(C)(COc1ccc(CC3SC(=O)NC3=O)cc1)O2` (centres unmarked) [troglitazone], the figures for the inhibition at 90 min, 250 μM against UGT1A6 [1], against UGT1A6 [2] and at UGT1A6 [3] were 68.6%, 61.8% and 17.3%, respectively.
